Results: patent US20250369032A1 (priority 2023, published 2025)
“And” between values parts separate entries of the source, which are not always exact repeats. Equal values may be shown once. Read-outs that look alike come from different tables or passages of the source.

How the values were obtained:
alkaline phosphatase [1] = molecular target: T1, alkaline phosphatase (Bos taurus, UniProt P19111)
Protocol: Two different dosing concentrations were evaluated, 10 μL of test chemical added to 90 μL of alkaline phosphatase reaction reagent and 50 μL of test chemical added to 50 μL of alkaline phosphatase reaction reagent; all aliquoted in 96-well plates.
• 1. Alkaline phosphatase reaction reagent (fresh, 1:100) • a. Take 4 mL of AP (1:10) stock solution, add to 36 mL PBS. Vortex mix and then invert to mix 10 times • 2. Prepare alkaline phosphatase reaction reagent for every condition • a. 200 μL AP (1:10) in 1.8 mL PBS • b. […] 200 μL AP (1:10) in 1.8 mL Acetone • 3. Prepare 96-well plates for dosing • 4. Prepare 96-well plates for PNPP reading (3 wells for each test chemical) • a. Aliquot with 200 μL PNPP
• 1. Set 1 • a. 10 μL chemical added to 90 μL AP reaction reagent • 2. Set 2 • a. 50 μL chemical added to 50 μL AP reaction reagent • 3. Incubate for 3 hours • a. To the prepared 96-well plate with 200 μL PNPP aliquoted, add 20 μL • b. […] To the prepared 96-well plate with 200 μL PNPP aliquoted, add 20 μL • b.
In our next study, we focused on ethanol and buffered saline (potassium chloride, potassium phosphate monobasic, sodium chloride, sodium phosphate dibasic) as our solvents.
• 1. Alkaline phosphatase reaction reagent • a. 1:100 • i. PBS: Take 400 μL of AP (1:10) stock solution, add to 3.6 mL PBS. Vortex mix and then invert to mix 10 times • ii. […] Vortex mix and then invert to mix 10 times • b. 1:1000 • i. PBS: Take 400 μL of AP (1:100) stock solution, add to 3.6 mL PBS. Vortex mix and then invert to mix 10 times • ii. […] Vortex mix and then invert to mix 10 times • 2. Prepare 0.5 mL microcentrifuge tubes for dosing • a. One set for room temperature, one set for 37° C. • 3. Prepare 96-well plates for PNPP reading (3 wells for each test chemical) • a. Aliquot with 200 μL PNPP
• 1. In each microcentrifuge tube for each condition, add 180 μL of the corresponding AP reaction reagent • 2. Add 20 μL of the test chemical to each microcentrifuge tube • 3. Incubate for 4 hours (one set at room temperature; one set at 37° C.) • 4. To prepared 96-well plates with 200 μL PNPP aliquoted, add 20 μL of each microcentrifuge tube to the corresponding well • 5.

skin = settings: cited from earlier work
alkaline phosphatase [2] = molecular target: T1, alkaline phosphatase; assay type: biochemical; set-up: purchased Sigma Aldrich, St. Louis, MO P0114 (original source); P7640 (second source, 'new AP' condition only)
[3] = system: endogenous skin phosphatase; assay type: biochemical, porcine; settings: optical density compared to the naïve condition
Protocol: Our next studies involved applying the test substance (500 μL) directly to the epidermis side of previously frozen porcine skin (Spear Products, Coopersburg, PA) that is placed in a holder that only exposes the epidermis side for 30 minutes, adding phosphate buffered saline (PBS) with added sodium azide (metabolic inhibitor that ensure no viable tissue), then aliquoting into cuvettes to read at an optical density of 300 nm. […] So, at the end of the initial studies described above, almost out of frustration, we tried to probe for released phosphatase activity using p-Nitrophenyl phosphate disodium salt (PNPP; Sigma Aldrich, St. Louis, MO) substrate solution to detect any presence of phosphatase.
• 1. Thaw 2 pieces of frozen porcine skin • a. Punch out as many skin discs and mount in holders • 2. Label cuvettes (3 for each chemical)
• 1. Add 500 μL of test chemical to holder; incubate at room temperate for 30 minutes • 2. After 30 minutes, add 2 mL of PBS-Azide to both the holder containing the test chemical; forcefully pipette and re-pipette 10 times • 3. From the holder, aliquot 400 μL into 3 cuvettes; forcefully pipette and re-pipette 3 times before dispensing into cuvettes
Skin corrosion by GHS Category 1 dermal corrosive chemicals results in the disintegration of the epidermis into the dermis.

alkaline phosphatase [4] = molecular target: T1, alkaline phosphatase; assay type: biochemical; set-up: purchased Sigma Aldrich, St. Louis, MO P0114 (original source); P7640 (second source, 'new AP' condition only); remark: listed apart in the source
Description: Our next study focused on an in vitro method of detecting the potential of dermal corrosives to inhibit nonspecific phosphatases that may be released from the skin. We decided to test pure […] instead of relying on endogenous skin phosphatase. Alkaline phosphatase (Sigma Aldrich, St. Louis, MO) was purchased and suspended to make the reaction reagent (10,000 units). […] We note that the ratio used was 0.1 g/ml or 10% chemical-which is far in excess of any pharmaceutical applications. We further note that pharmaceutical enzyme inhibition tests, studies an use involve highly specific active site binding and these assays are conducted at ratios of micrograms-femtograms per ml. These studies are done at these ranges because these are the realistic concentrations for drug applications and therapeutics. […] So when a 50 Kg human consumes the tables, the tissues will be exposed at a 5 mg/50 kg=0.1 mg/kg=0.0000001 g/ml.
Next two quantitative methods were evaluated: 1) using the discs parts from our OptiSafe™ test method and 2) directly into the 24-well plate.
• 1. Alkaline phosphatase reaction reagent • a. Take 1 vial of AP, add 1 mL of PBS, mix by pipette/re-pipette 10 times • b. To a 50 mL conical tube, add 1 mL of the AP solution prepared above and 40 mL of PBS • 2. Prepare two 24-well plates (1 with discs, 1 without discs) • 3. […] Aliquot 200 μL PNPP and PBS
• 1. Plate 1 (No Discs) • a. Add 1.25 mL from the prepared PBS-AP conical tube to each well (11 wells) • b. Add 100 μL of the test material to the well, mix with the same pipette tip, dispose and repeat for the rest of the test materials • c. Wrap the plate in saran wrap and place into the container • 2. Plate 2 (Discs) • a. Configure the 11 discs in the plate so the plate cover is stable • b. Add 1.25 mL from the prepared PBS-AP conical tube to each well (11 wells) • c. Add 100 μL of the test material to the center of the disc and repeat for the rest of the test materials • d. Put the plate cover on and place into the container • 3. […] Incubate for 1 hour
For the new study, the alkaline phosphatase was suspended in phosphate buffered saline (PBS) to make the reaction reagent. Then, 100 μL of the test chemical is added directly into the corresponding wells on a 24-well plate with 1.25 mL of alkaline phosphatase reaction reagent already aliquoted.
• 1. Alkaline phosphatase reaction reagent • a. Take 1 vial of AP, add 1 mL of PBS, mix by pipette/re-pipette 10 times • b. To a 50 mL conical tube, add 1 mL of the AP solution prepared above and 40 mL of PBS • 2. Prepare two 24-well plates • 3. […] Aliquot with 200 μL PNPP and PBS • 4. Prepare glass vials Repeat Procedure from Jan. […] 24-well plate • a. Add 1.25 mL from the prepared PBS-AP conical tube to each well (11 wells) • b. Add 100 μL of the test material to the well, mix with the same pipette tip, dispose and repeat for the rest of the test materials • c. Wrap the plate in saran wrap and place into the container • 2. […] To the prepared 96-well plate with 200 μL PNPP or PBS, add 20 μL from the 24-well plate • 4. Incubate for 1 hour • 5.
• 1. 24-well plate • a. Add 1.25 mL from the prepared PBS-AP conical tube to each well (11 wells) • b. Add 100 μL of the test material to the well, mix with the same pipette tip, dispose and repeat for the rest of the test materials • c. After 10 minutes, mix each well • 2.

[5] = 4 mL glass vials, 30 μL into 300 μL, 1:100, 4 hours room temperature, 3 mL PNPP 1 hour
[6] = skin, chemical lists of the protocols
[7] = 1:100, 20 μL into 180 μL, 0.5 mL microcentrifuge tubes, 4 hours RT, PNPP 60 min, 405 nm
[8] = average of R1-R3, 1:100, 20 μL into 180 μL, 4 hours RT, PNPP 60 min, 405 nm
[9] = original alkaline phosphatase 1:1, 18 hours room temperature
[10] = original alkaline phosphatase 1:100 (100 units), 100 μL into 1 mL, 18 hours room temperature, PNPP 1 hour

T1 sequence (P19111 20-506): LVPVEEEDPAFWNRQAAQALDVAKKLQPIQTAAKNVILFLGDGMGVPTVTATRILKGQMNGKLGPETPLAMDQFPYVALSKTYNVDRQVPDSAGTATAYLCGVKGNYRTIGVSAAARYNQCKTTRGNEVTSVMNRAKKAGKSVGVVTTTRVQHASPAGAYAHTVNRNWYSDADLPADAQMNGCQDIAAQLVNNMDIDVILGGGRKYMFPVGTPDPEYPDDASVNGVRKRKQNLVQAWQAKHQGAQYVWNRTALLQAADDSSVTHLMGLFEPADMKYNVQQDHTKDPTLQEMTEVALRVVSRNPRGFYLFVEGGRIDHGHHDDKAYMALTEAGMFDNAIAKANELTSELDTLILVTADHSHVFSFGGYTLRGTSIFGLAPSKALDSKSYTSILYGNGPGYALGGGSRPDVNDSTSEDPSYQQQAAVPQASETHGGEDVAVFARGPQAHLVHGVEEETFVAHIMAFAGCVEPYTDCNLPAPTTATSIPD

| Compound | OD405 readings (FIG. 11D) (alkaline phosphatase [1]; [5]) | in vivo GHS (skin; [6]) | A1-Results R1 (alkaline phosphatase [2]; [7]) | A1-Results R3 (alkaline phosphatase [2]; [7]) | OD405 readings (FIG. 11B) (alkaline phosphatase [2]; [5]) | A1-Results AVG (alkaline phosphatase [2]; [8]) | prediction based on OD405 values (FIG. 6B) (alkaline phosphatase [2]; [9]) | OD405 readings (FIG. 6D) (alkaline phosphatase [2]; [10]) | also measured |
| --- | --- | --- | --- | --- | --- | --- | --- | --- | --- |
| CC(C)N(C)C [Dimethylisopropylamine] | 2.926 and 2.922 and 2.852 | Cat. 1B/1C | 3.423 | 3.485 | 3.354 and 3.466 and 3.502 | 3.458 | incorrectly predicted | 3.466 and 3.502 | – |
| NCCO [Ethanolamine] | – | – | – | – | – | – | – | – | percent of phosphatase measured (first reading) [3]: 20.1%; percent of phosphatase measured (second reading) [3]: 19.6%; percent of phosphatase measured, average [3]: 19.9%; Corrosive (skin; rabbit, in vivo): Yes; optical density readings (FIG. 3B) (alkaline phosphatase [4]): 0.174 and 0.185 and 0.175; optical density readings (FIG. 3A) (alkaline phosphatase [2]): 0.170 and 0.166 and 0.172 |
| CN(C)Cc1ccccc1 [N,N-Dimethylbenzylamine] | – | – | – | – | – | – | – | – | OD405 reading (FIG. 9B) (alkaline phosphatase [1]): 0.587; OD405 readings (FIG. 11D) (alkaline phosphatase [1]): 3.429 and 3.249 and 3.164; A1-Results AVG (alkaline phosphatase [2]): 3.240; A1-Results R1 (alkaline phosphatase [2]): 3.265; A1-Results R3 (alkaline phosphatase [2]): 3.230; OD405 readings (FIG. 6D) (alkaline phosphatase [2]): 3.431 and 3.502 and 3.61; OD405 readings (FIG. 11B) (alkaline phosphatase [2]): 3.360 and 3.238 and 3.273; prediction based on OD405 values (FIG. 6B) (alkaline phosphatase [2]): incorrectly predicted |
| CCCCCCCCC=O [Nonyl aldehyde] | – | Cat. 2 (Category 2 (irritation; mean score of ≥2.3 and ≤4.0 for erythema/eschar or for oedema in at least 2 of 3 tested animals at 24, 48, and 72 hours or inflammation that persists to the end of 14 days)) | 3.393 | 3.050 | – | 3.296 | – | – | OD405 reading (FIG. 7A) (alkaline phosphatase [1]): 1.589; OD405 reading (FIG. 7B) (alkaline phosphatase [1]): 3.078 |
| CCCCCCCC(=O)O [Octanoic Acid] | 3.283 and 3.408 and 3.220 | – | 0.741 | 0.860 | 1.427 and 1.415 and 1.416 | 0.797 | incorrectly predicted | 3.462 and 3.491 and 3.333 | in vivo GHS (skin; rabbit, in vivo): Cat. 1B/1C |
| [K+].[OH-] [Potassium hydroxide (10%)] | – | Cat. 1B (Category 1B (corrosive responses in at least one animal during exposure period of ≤1 hour)) | 0.118 | 0.112 | – | 0.114 | – | – | prediction based on OD405 values (FIG. 6D) (alkaline phosphatase [4]; original alkaline phosphatase 1:100 dilution): correctly predicted; optical density readings (FIG. 4) (alkaline phosphatase [4]; repeat, without discs, 18 hours 37° C., PNPP 1 hour, 405 nm): 0.123 and 0.124 |
